Experimental data reported in US11299715B2, “Use of iNOS inhibitors to increase viral yield in culture” (priority 2013, dated 2022).

Tests used:
Type in all cases: cell-based, HSV-1
[1] = tested on: rHSV-1 d27-1 (d27-1) vector; experiment: ATA-HSV protocol: rHSV-1 d27-1 vector yield in V27 cell supernatants
From the text: (§1) The wtHSV-1 KOS strain and the ICP27-deficient derivatives of the wtHSV-1 KOS strain: vectors d27-1 (Rice and Knipe, J. Virol. (1990) 64:1704-1715), rHSV-rep2/cap2 and rHSV-EGFP (Kang et al., Gene Ther. (2009) 16:229-239) and their producer ICP27-complementing V27 cell line were obtained from AGTC (Alachua, Fla.). The wtHSV-1 MacIntyre strain, purchased from Advanced Biotechnologies Inc. (ABI, Columbia Md.) and wtHSV-1 KOS strain were propagated in Vero, 293 or HeLa cell lines. Infectious vector particles were harvested 72 hr postinfection by recovering culture supernatant. The titers of HSV-1 stocks in DNase resistant particles/ml (DRP/ml) were determined by Taqman assay. Viral genomes within crude culture medium were quantified via treatment in the presence of DNase I (50 U/ml final; Promega) at 37° C. for 60 min, followed by proteinase K (Invitrogen) digestion (1 U/ml) at 50° C. for 60 min, and then denatured at 95° C. for 30 min. Linearized plasmid pZero 195 UL36 (obtained from AGTC, Inc., Alachua, Fla.) was used to generate standard curves.
(§2) ATA (Sigma-A1895 Aurintricarboxylic acid practical grade, ≥85% (titration), powder) stock solution was generated as 500 μM concentration in 100 mM sodium bicarbonate water solution. ATA stock solution was further diluted in DMEM+/−10% fetal bovine serum (FBS, Hyclone, Waltham, Mass.) into concentration ranges of […] ATA (8.5-21 μgATA/ml). The HSV-1 infection at multiplicity of infection of 0.15 (MOI=0.15) (typically 6×10^5 cells in a 6-well plate) was performed in 40% (⅖ vol) of the total final media volume for 1-2 hrs and the remaining media (60% or ⅗ of the total final volume) was added during the dilution step. The cells were then incubated 72 hours and supernatant harvested to perform forming units per milliliter (PFU/ml) and DRP/ml titer assays.
In order to test whether ATA could increase the rHSV-1 d27-1 (d27-1) vector yield in V27 cells, ATA was applied to the media during the infection (Step 1) or dilution steps (Step 2) (FIG. 2A). The d27-1 infection at MOI=0.15 was performed in ⅖ of the final media volume and the remaining ⅗ of the media was added during dilution step.
In order to determine which concentrations and conditions for ATA addition have impact on HSV yields, the following experiments were conducted. ATA at varying concentrations was added to V27 cultures infected with the HSV-1 d27-1 vectors in either six-well plates (FIG. 2B) or T150 flasks (FIG. 2C) in two steps as follows. In Step 1 of the protocol, V27 cells were infected with 0.15 MOI of the rHSV vector in ⅖ of the final volume of DMEM with 10% FBS and 0-60 μM ATA concentrations. Cells were cultured for 1-2 hours at 37° C. to complete Step 1. In Step 2, the concentration of ATA was reduced to a range between 12-24 μM by the addition of ⅗ of final media volume. Cells were cultured for 70-74 hours at 37° C. and the supernatant harvested. Viral titers were expressed as Dnase Resistant Particles (DRP/ml) or Plaque Forming Units (pfu/ml) per ml and were determined as described above.
In this experiment, V27 cells were seeded into six well plates the day prior to infection at 6×10^5 cells/well. HSV 2× infection solution was prepared as follows: HSV-1 d27.1 stock was added to DMEM (no FBS) at 2× titer that the cells would be infected at final MOI 0.15. Several 2×ATA solution combinations were prepared containing either 100 μM or 40 μM ATA in DMEM and without FBS or with 20% FBS.
HSV 2× infection solution was mixed equal volumes of either DMEM−/+20% FBS or desired 2×ATA solution−/+20% FBS, vortexed, and 1 ml of infectious inoculum per well was added in Step 1. If wells contained ATA in Step 1, the concentration was 50 μM and all wells were incubated for 1-2 hrs. In Step 2, additional 1.5 ml of DMEM combinations−/+40 μM ATA and −/+20% FBS were added. If wells contained ATA whether in Step 1 or Step 2, the final ATA concentration was 20 μM. […]

wtHSV-1 KOS strain = wtHSV-1 KOS strain propagation in 293, HeLa and Vero cells with ATA
From the text: as §1, §2
Supernatants containing virus were harvested after three days as described above. […] Finally, ATA also appeared to inhibit both types of HSV-1 viruses in HeLa cells. Two-way ANOVA; Bonferroni test; −ATA vs. +ATA: ***: p<0.001, ns: p>0.05; n=4 independent experiments.
In order to illuminate the ATA mechanism of action by human genome array and the fact that Vero and V27 are monkey-derived cell lines, wtHSV-1 propagation was tested in several human cell lines (FIGS. 4A-4B). A propagation of two wild type HSV-1 (wtHSV-1) strains, KOS and McIntyre, were compared in three cell lines: human embryonic kidney 293 (293 cells), human cervical cancer HeLa cells and African green monkey kidney epithelial Vero cells. The experiments were carried out in 10% FBS-containing media following the ATA I protocol scheme, where 50 μM ATA was supplemented during the infection step and further diluted to 20 μM ATA concentration (see Material and Methods).

[2] = tested on: rHSV-1 d27-1 (d27-1) vector; experiment: ATA-HSV protocol: rHSV-1 d27-1 vector yield in V27 cell supernatants; conditions: V27 cells, n=10, ATA 50 μM at Step 1, final 20 μM
[3] = serum-free media, ATA at Step 2, 20 μM final
[4] = serum-free media, ATA starting at 3 μM at Step 1

O=C(O)C1=CC(=C(c2ccc(O)c(C(=O)O)c2)c2ccc(O)c(C(=O)O)c2)C=CC1=O [ATA, 5-((3-carboxy-4-hydroxyphenyl)(3-carboxy-4-oxo-2,5-cyclohexadien-1-ylidene)methyl)-2-hydroxybenzoic acid]
d27-1 titer in supernatant (PFU/ml) ([1]; 50 μM ATA at infection step, 20 μM f.c., 72 h.p.i., control 1.4±0.2×10^7): 1.2±0.3×10^8 PFU/ml | d27-1 titer in supernatant (DRP/ml) ([1]; 50 μM ATA at infection step, 20 μM f.c., 72 h.p.i., control 4.0±0.3×10^7): 3.7±0.2×10^8 DRP/ml | increase of d27-1 titers in supernatant ([1]; 50 μM ATA at infection step, 20 μM f.c., harvest 72 h.p.i.): about 10 times | Cytopathic effect (CPE) at the time of harvest ([1]; 72 hpi, V27 monolayers, 100% CPE in the absence of ATA): 20-60% | HSV titers versus cultures without ATA ([1]; ATA added in Step 1 or Step 2, six-well plates and T150 flasks, 10% FBS): significantly higher | HSV-1 plaque formation or cell lysis in V27 cell monolayers ([1]; ATA treatment): delayed | DRP titer, ATA in serum-free media at dilution step (Step 2) [1, 3]: reduced below control level | PFU/ml titer, ATA in serum-free media at dilution step (Step 2) [1, 3]: below detection | DRP/ml titer, ATA in serum-free media at infection Step 1 [1, 4]: below the detection limit | PFU/ml titer, ATA in serum-free media at infection Step 1 [1, 4]: below the detection limit | d27-1 titers with ATA (DRP/ml) ([1]; summary statement): ≥ 4×10^8 DRP/ml | d27-1 titers with ATA (PFU/ml) ([1]; summary statement): at least 1×10^8 PFU/ml | increase of d27-1 yields in V27 cells supernatants ([1]; summary statement): 3-5 times | HSV-1 KOS growth in 293 cells (wtHSV-1 KOS strain; 50 μM ATA at Step 1, 20 μM after Step 2, 293 cells): inhibit | propagation of HSV-1 KOS in HeLa cells (wtHSV-1 KOS strain; 50 μM ATA at Step 1, 20 μM after Step 2, HeLa cells): inhibit | yield of wtHSV-1 KOS in Vero cells (wtHSV-1 KOS strain; 50 μM ATA at Step 1, 20 μM after Step 2, Vero cells, 10% FBS): increased | wtHSV-1 KOS titer in Vero cells (wtHSV-1 KOS strain; 50 μM ATA at infection, diluted to 20 μM, 10% FBS, n=4, without ATA 1.7×10^8): 9.1×10^8 DRP/ml | 293 or Vero titers with ATA, KOS (wtHSV-1 KOS strain; summary statement): up to 1×10^9 DRP/ml | increase of wt HSV-1 KOS yields (wtHSV-1 KOS strain; summary statement): 1 log | increase of d27-1 titer after ATA addition ([2]; 6-well plates, MOI 0.15): 6.1 times | d27-1 titer after ATA addition ([2]; without ATA 5.4×10^7): 1.1×10^8 DRP/ml
